# Reference: US12077486B2, “Quaternary fatty amidoamine detergents” (NOURYON CHEMICALS INTERNATIONAL B.V., priority 2018, dated 2024)
# How the values were obtained:
# [1] = solubility in an a-polar medium; assay type: physicochemical
# Description: Throughout this document, unless indicated differently, the weight percentages of the compositions are based on the total weight of the composition, whereby the total weight of the composition is 100 wt %. The term water-soluble is used for materials that dissolve in an amount of at least 1 g per liter of demineralized water at 25° C. Where used, the term “consisting” also embraces “consisting substantially”, but may optionally be limited to its strict meaning of “consisting entirely”. An a-polar (nonpolar) medium is herein defined as a material having a dielectric coefficient of less than 7 at 20° C. Typically it is a liquid at the temperature of use. Suitably it is a medium with a dielectric coefficient at 20° C. of less than 6.5, 6, 5.5, 5, 4.5, 4, 3.5, or 3. The dielectric constant is measured in accordance with ASTM D150. The term “substantially free” is used fora moiety that is present in an amount of less than 2% by weight. Similarly, the term “essentially” is used to denote a composition that consists for more than 95% by weight of the indicated components.
# [2] = stabilization of a dispersion of solids in a-polar medium; settings: over a wide range of temperatures
smiles,measurement,setting,value
CCCCC/C=C\CCC(CCCCCCCC(=O)NCCC[N+](C)(C)C)C(CCCCCCCC)CCCCCCCCC(=O)NCCC[N+](C)(C)C (centres unmarked) [Preparation Example 1],dissolution in an a-polar medium,[1],easily dissolve
same,stabilization of a dispersion of solids in the dissolution,[2],perfectly stabilize
